The structures appear in SMILES notation.

These results are taken from patent publication US6596718B1, “7-Morpholin-4yl-benzothiazole amide derivatives” (Hoffmann-La Roche Inc., priority 2001, dated 2003).

What is called melting point is the temperature, or range, at which the solid turns liquid.

Consider `COc1ccc(N2CCOCC2)c2sc(C(=O)NC[C@H]3CCCC[C@H]3O)nc12` (stereo in doubt) [Example 42, 4-Methoxy-7-morpholin-4-yl-benzothiazole-2-carboxylic acid (2-hydroxy-cyclohexylmethyl)-amide], for which the melting point is 178 to 180 °C.

The compound `COc1ccc(N2CCOCC2)c2sc(C(=O)NC[C@@H]3CCCC[C@H]3O)nc12` (stereo in doubt) [Example 43, 4-Methoxy-7-morpholin-4-yl-benzothiazole-2-carboxylic acid (2-hydroxy-cyclohexylmethyl)-amide] registered a melting point of 133 to 135 °C.

Compound `COc1ccc(N2CCOCC2)c2sc(C(=O)N[C@H]3CCCC[C@@H]3O)nc12` (stereo in doubt) [Example 72, 4-Methoxy-7-morpholin-4-yl-benzothiazole-2-carboxylic acid (2-hydroxy-cyclohexyl)-amide] had a melting point of 110 to 115 °C.

Compound `COc1ccc(N2CCOCC2)c2sc(C(=O)Nc3ccc(F)cc3)nc12` [Example 2, 4-Methoxy-7-morpholin-4-yl-benzothiazole-2-carboxylic Acid (4-Fluoro-phenyl)-amide] yielded a melting point of 206 to 208 °C.

Regarding `COc1ccc(N2CCOCC2)c2sc(C(=O)NCc3ccccc3)nc12` [Example 3, 4-Methoxy-7-morpholin-4-yl-benzothiazole-2-carboxylic Acid Benzylamide], the melting point was 156 to 158 °C.

Compound `COc1ccc(N2CCOCC2)c2sc(C(=O)Nc3ccccc3)nc12` [Example 4, 4-Methoxy-7-morpholin-4-yl-benzothiazole-2-carboxylic acid phenylamide] displayed a melting point of 190 to 191 °C.

For `COc1ccc(N2CCOCC2)c2sc(C(=O)NC3CCCCC3)nc12` [Example 5, 4-Methoxy-7-morpholin-4-yl-benzothiazole-2-carboxylic acid cyclohexylamide], the melting point was in the range of 146 to 147 °C.

Compound `COc1ccc(N2CCOCC2)c2sc(C(=O)NCc3ccc(Cl)cc3)nc12` [Example 7, 4-Methoxy-7-morpholin-4-yl-benzothiazole-2-carboxylic acid 4-chloro-benzylamide] displayed a melting point of 175 to 176 °C.

As for `COc1ccc(N2CCOCC2)c2sc(C(=O)NC3CCCC3)nc12` [Example 8, 4-Methoxy-7-morpholin-4-yl-benzothiazole-2-carboxylic acid cyclopentylamide], the melting point was 174 to 175 °C.

Regarding `COc1ccc(NC(=O)c2nc3c(OC)ccc(N4CCOCC4)c3s2)cc1` [Example 10, 4-Methoxy-7-morpholin-4-yl-benzothiazole-2-carboxylic acid (4-methoxy-phenyl)-amide], the melting point is 148 °C.

With `COc1cccc(NC(=O)c2nc3c(OC)ccc(N4CCOCC4)c3s2)c1` [Example 11, 4-Methoxy-7-morpholin-4-yl-benzothiazole-2-carboxylic acid (3-methoxy-phenyl)-amide], the melting point turned out to be 160 °C.

Compound `COc1ccccc1NC(=O)c1nc2c(OC)ccc(N3CCOCC3)c2s1` [Example 12, 4-Methoxy-7-morpholin-4-yl-benzothiazole-2-carboxylic acid (2-methoxy-phenyl)-amide] displayed a melting point of 191 °C.

`COc1ccc(N2CCOCC2)c2sc(C(=O)NCc3ccc4c(c3)OCO4)nc12` [Example 14, 4-Methoxy-7-morpholin-4-yl-benzothiazole-2-carboxylic acid (benzo[1,3]dioxol-5-ylmethyl)-amide] gave a melting point of 190 to 193 °C.

The compound `COc1ccc(N2CCOCC2)c2sc(C(=O)NCc3cccnc3)nc12` [Example 18, 4-Methoxy-7-morpholin-4-yl-benzothiazole-2-carboxylic acid (pyridin-3-ylmethyl)-amide] came in with a melting point of 181 to 184 °C.

Regarding `COc1ccc(N2CCOCC2)c2sc(C(=O)Nc3ccccn3)nc12` [Example 19, 4-Methoxy-7-morpholin-4-yl-benzothiazole-2-carboxylic acid pyridin-2-ylamide], the melting point was 177 to 181 °C.
